Reference: patent publication US20260263573A1, “Tumor Immunotherapy” (PingShan Translational Medicine Center, Shenzhen Bay …, priority 2022, published 2026)

System: B16-OVA melanoma
Experiment: Lung metastasis model
Assay type: in vivo, mice
Settings: day 20 after tail vein injection of B16-OVA
Description: Furthermore, a lung metastasis model was selected to evaluate the prevention of lung colonization of melanoma with nanocomposites (FIG. 21a). The administration was similar to that of the tumor model, except that 5×10^5 B16-OVA cells per mouse were injected via tail vein 7 days after the end of the last administration. The mice were dissected on day 20 after injection, the lungs of the mice were removed, and the lungs were washed with Fekete's eluent (70 mL of alcohol, 10 mL of formaldehyde, 5 mL of glacial acetic acid, 15 mL of water). After decoloration, lung tumor nodules were counted. Finally, all tissues were sent to Univ company for tissue section and H&E staining analysis.

Ac-WMβASIINFEKL (WMXSIINFEKL; N-terminal acetyl; beta-alanine; N-terminal Acetylation and Xaa represents a ??-alanine isomer of alanine at the 3AA position; (3)..(3) Xaa is ??-alanine (beta-alanine), an isomer of Alanine) [OVA]
H&E staining of lung tissue: melanoma cell infestation: lung cells infected with melanoma cells were also found
